Test results as given in patent US20060147549A1, “Methods and compositions for reducing population of plant pathogen” (priority 2004, published 2006).

Test system: citrus canker microbe (Xanthomonas axonopodis pv citri)
Test: Nursery experiment: compositions sprayed on fruit bearing citrus trees inoculated with citrus canker microbe
Assay type: in vivo
Description: In a nursery experiment, three antimicrobial compositions and a control composition were tested for activity against citrus canker microbe. The compositions were sprayed on fruit bearing citrus trees that had been inoculated with citrus canker microbe (Xanthomonas axonopodis pv citri). In these experiments composition A was the metal antimicrobial agent and poly(hexamethyl biguanide) composition and composition B was this composition plus copper ion.
The composition of metal antimicrobial agent and poly(hexamethyl biguanide) as used in compositions A and B included: water ([…]), poly(hexamethyl biguanide) (0.6 wt-%), and silver iodide (0.02 wt-%) Triton X-100 (2 wt-%), Tectronic 1107 (1.2 wt-%), 1-methyl-2-pyrrolidinone (0.3 wt-%), and ethanol (2.8 wt-%).
The antimicrobial composition was applied periodically and the plants were challenged with citrus canker microbe.

## Copper
Date 1
  % OF HEALTHY LEAVES: 82%
  % OF LEAVES WITH CANKER: 22.2%
Date 2
  % OF HEALTHY LEAVES: 80.7%
  % OF LEAVES WITH CANKER: 18%
Date 4
  % OF HEALTHY LEAVES: 84.7%
  % OF LEAVES WITH CANKER: 17.59%
